Reference: patent US20260297031A1, “HYDROXYLAMINE-BASED BCR-ABL1 INHIBITORS FOR TREATMENT OF CANCER” (University of Georgia Research Foundation, Inc., priority 2023, published 2026)

Assays:
[1] = Metabolic stability in human hepatocytes; conditions: for remaining at 0.5 min / remaining at 0.5 h / remaining at 1 h / remaining at 2 h: hepatocytes
Procedure: Metabolic Stability in Hepatocytes (Independently Performed by Pharmaron Inc., Ninqbo, CN)
After thawing was complete, hepatocytes were transferred into a 50 mL conical tube containing thawing medium and the tube was then placed into a centrifuge and spun at 100 g for 10 min. […] Using AO/PI staining, cells were counted to determine the viable cell density. […] Subsequently, 2 μL of the 100 μM test compounds or control compound solutions was transferred into the respective wells of the 96-well non-coated plate to start the reaction. […] Aliquots of 100 μL of the supernatant were then diluted by 100 μL of ultra-pure water, and the mixture was analyzed by LC-MS/MS.
All calculations were carried out using Microsoft Excel. Peak areas were determined from extracted ion chromatograms. The in-vitro half-life (t1/2) of parent compound was determined by regression of the percent parent disappearance vs. time curve.

BCR-ABL1 M351T = biological target: T1, BCR-ABL1 M351T (Homo sapiens, UniProt P00519, M351T); assay: KinaseProfiler radiometric kinase assay, BCR-ABL1 M351T; type: biochemical; conditions: [ATP] = 10 μM; mean of n = 2
T1 construct: BCR (fusion partner, as the printed name BCR-ABL1 says)

cSRC = cSRC (Homo sapiens, UniProt P12931); assay: KinaseProfiler radiometric kinase assay, cSRC wt; type: biochemical
Sequence of cSRC (P12931 whole entry): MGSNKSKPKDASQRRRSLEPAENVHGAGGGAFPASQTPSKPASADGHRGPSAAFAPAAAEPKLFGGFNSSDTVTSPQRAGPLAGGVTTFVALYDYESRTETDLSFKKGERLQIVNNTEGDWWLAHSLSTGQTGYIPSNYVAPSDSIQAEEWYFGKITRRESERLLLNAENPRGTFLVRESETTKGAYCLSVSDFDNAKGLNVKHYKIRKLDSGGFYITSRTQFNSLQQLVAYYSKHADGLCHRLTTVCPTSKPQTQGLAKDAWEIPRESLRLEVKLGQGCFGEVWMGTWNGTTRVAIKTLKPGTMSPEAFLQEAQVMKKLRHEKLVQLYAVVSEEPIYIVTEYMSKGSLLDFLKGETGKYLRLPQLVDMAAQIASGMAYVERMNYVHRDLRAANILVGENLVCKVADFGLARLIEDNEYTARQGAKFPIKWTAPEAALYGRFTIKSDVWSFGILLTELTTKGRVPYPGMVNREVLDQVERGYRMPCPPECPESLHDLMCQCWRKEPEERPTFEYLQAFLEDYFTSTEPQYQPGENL

MDCKII-MDR1 cells = assay: MDCKII-MDR1 permeability; conditions: MDCKII-MDR1
Procedure: MDCKII-MDR1 Permeability (Independently Performed By: Pharmaron Inc., Ninqbo, CN)
To each well of the Transwell insert and reservoir were added 50 μL and 25 mL of cell culture medium, respectively.
To determine the rate of drug transport in the apical to basolateral direction, 125 μL of the working solution of either test compounds or control compounds was added to the Transwell insert (apical compartment) and a 50 μL sample was immediately transferred from the apical compartment to 200 μL of acetonitrile containing internal standard (100 nM alprazolam, 200 nM caffeine, and 100 nM tolbutamide) in a new 96-well plate as the initial donor sample (A-B). The sample was then vortexed at 1,000 rpm for 10 min. The receiver plate (basolateral compartment) wells were then filled with 235 μL transport buffer. To determine the rate of drug transport in the basolateral to apical direction, 285 μL of the working solution of either test compounds or control compounds was added to the receiver plate (basolateral compartment) wells and a 50 μL of sample was immediately transferred from the basolateral compartment to 200 μL of acetonitrile containing internal standard in a new 96-well plate as the initial donor sample (B-A). The sample was vortexed for 10 min at 1,000 rpm. The Transwell insert (apical compartment) was then filled with 75 μL of transport buffer and the apical to basolateral direction and the basolateral to apical direction were done at the same time. […] After incubation, 50 μL samples from donor sides (apical compartment for Ap→BI flux, and basolateral compartment BI→Ap) and receiver sides (basolateral compartment for Ap→BI flux, and apical compartment for BI→Ap) were transferred to wells of a new 96-well plate, followed by the addition of 200 μL acetonitrile containing internal standard. […] An aliquot of 100 μL of the supernatant was mixed with an appropriate volume of ultra-pure water before LC-MS/MS analysis.
To monitor for monolayer integrity, Lucifer yellow leakage was determined after the 2 h transport period. This began by preparing a stock solution of Lucifer yellow in DMSO and diluted with HBSS (10 mM HEPES, pH 7.4.) to reach a final concentration of 100 μM. To each Transwell insert (apical compartment) was then added 100 μL of the Lucifer yellow solution, followed by filling the wells in the receiver plate (basolateral compartment) with 300 μL of HBSS (10 mM HEPES, pH 7.4).
The efflux ratio was determined using the following equation: […]

mutant BCR-ABL1 = assay: KinaseProfiler radiometric kinase assay, mutant BCR-ABL1 kinases as a group; type: biochemical, human
Source text: Biochemical Human RTK Kinase Enzymatic Radiometric Assay, KinaseProfiler (Independently Performed by Eurofins Cerep SA, FR)

[2] = Plasma protein binding by equilibrium dialysis, human plasma; type: in vitro ADME; conditions: human plasma
Procedure: Plasma Protein Binding by Equilibrium Dialysis (Independently Performed by Pharmaron Inc., Ninqbo, CN)
Initially, 1 mM solutions of test compounds and the control compound (Ketoconzaole) were prepared in DMSO. After this, dialysis membranes were soaked in ultrapure water for 60 min to separate strips, followed by 20% aq. ethanol for 20 min, and finally in a dialysis buffer for 20 min. […] After this, 597 μL of blank plasma solution followed by 3 μL of the working solutions of either test compounds or control compound were added to a new plastic plate or separate plastic tube and the solutions were vortexed at 1,000 rpm for 2 min. Immediately after this, 50 μL of spiked plasma solution suspension was transferred to a 96-well plate to act as T=0 control. The remaining samples were treated in the same manner, whereby all remaining spiked plasma solutions were added to the incubator for the duration of the study.
Cells were then loaded with 120 μL of the plasma samples and dialyzed against an equal volume of dialysis buffer (PBS). […] At the end of incubation, the lid was removed and 50 μL of post-dialysis samples were removed from both buffer and plasma solution chambers into a separate 96-well plate for analysis. The plasma solutions (50 μL) were then added to the buffer samples along with an equal volume of PBS (50 μL) to the collected plasma solution samples. The plate was shaken at 1,000 rpm for 2 min and 400 μL of acetonitrile containing an appropriate internal standard was added to precipitate protein and release compound. The samples were then vortexed at 1,000 rpm for an additional 10 min followed by centrifugation at 3,220 g for 30 min. Supernatant (250 μL) was then added to a new 96-well plate and centrifuged again at 3,220 g for 30 min and 100 μL of this supernatant was then added to a new 96-well plate for analysis. The samples were analyzed by LC-MS/MS and 100 μL of distilled water was added to each sample prior to analysis.
Concentrations of test compounds and control compound in buffer and plasma solution chambers was determined and percentages of test compounds and control compound bound using the following equations (mean of n=2 replicates): […]

[3] = Metabolic stability in mouse hepatocytes; type: in vitro ADME; conditions: read-out: Remaining Percentages
Procedure: All calculations were carried out using Microsoft Excel. Peak areas were determined from extracted ion chromatograms.

Work on `COc1cc2c(Nc3cccc(Cl)c3F)c(C#N)cnc2cc1OCCON1CCN(C)CC1` [Compound 16, 4-((3-Chloro-2-flurophenyl)amino)-6-methoxy-7-(2-((4-methylpiperazin-1-yl)oxy)ethoxy)quinoline-3-carbonitrile] yielded a remaining at 0.5 min [1] of 100%, a remaining at 0.5 h [1] of 66.9% and a remaining at 1 h [1] of 45.1%. For the same molecule, the remaining at 2 h [1] was 18.6%.
In the case of `COc1cc(Nc2c(C#N)cnc3cc(OCCON4CCN(C)CC4)c(OC)cc23)ccc1Cl` [Compound 19], the IC50 (BCR-ABL1 M351T) is reported as 1 nM, the IC50 (cSRC; [ATP] = 10 μM, mean of n = 2) is reported as 2 nM and the “stability in hepatocytes, in words” value [1] is reported as “good stability in human hepatocytes”. It also gave a remaining at 0.5 min [1] of 100%, a remaining at 0.5 h [1] of 68.1% and a remaining at 1 h [1] of 50.2%. The remaining at 2 h [1] was 25.5%, the “efflux (P-gp), in words” value (MDCKII-MDR1 cells) was “reduced efflux ratios” and the “permeability in MDCKII-MDR1 cells, in words” value (MDCKII-MDR1 cells) was “markedly improved permeability”.
For `COc1cc2c(Nc3ccc(Cl)c(OC)n3)c(C#N)cnc2cc1OCCON1CCN(C)CC1` [Compound 21, 4-((5-Chloro-6-methoxypyridin-2-yl)amino)-6-methoxy-7-(2-((4-methylpiperazin-1-yl)oxy)ethoxy)quinoline-3-carbonitrile], the “cSRC kinase activity, in words” value (cSRC) was “excellent activity” and the “BCR-ABL1 kinase activity, in words” value (mutant BCR-ABL1) was “excellent activity”.
For `CC(=O)N1CCN(c2ccc(OCC3COC(Cn4ccnc4)(c4ccc(Cl)cc4Cl)O3)cc2)CC1` (centres unmarked) [Ketoconazole], the “% Unbound” value ([2]; 360 min, 5 µM) was 0.80% and the fraction unbound at 6 h, 5 µM ([2]; read-out: % Bound (converted)) was 0.008.
For `COc1ccc(CCN(C)CCCC(C#N)(c2ccc(OC)c(OC)c2)C(C)C)cc1OC` (centres unmarked) [Verapamil, reference compound], the remaining at 0.5 h [1] was 35.6%, the remaining at 1 h [1] was 17.7% and the remaining at 2 h [1] was 4.83%. For the same molecule, the remaining at […] ([3]; 15 min) was 16.7%, the remaining at 0.5 h ([3]; 30 min) was 4.39% and the remaining at 1 h ([3]; 60 min) was 1.24%.
